Measurements: ChEMBL document CHEMBL3885881, “DrugMatrix”

Species: Rattus norvegicus
Assay: DrugMatrix - Regimen: Daily Repeat
Format: toxicity, organism-based, Sprague-Dawley
Parameters: regimen Daily Repeat, gender Male, age 6-8 weeks
Conditions: in vivo, po, route oral GAVAGE, vehicle 100 % WATER; for URIC ACID / ALANINE AMINOTRANSFERASE / ALKALINE PHOSPHATASE / ASPARTATE AMINOTRANSFERASE / BLOOD UREA NITROGEN / CARBON DIOXIDE / CHLORIDE / CHOLESTEROL / CREATINE PHOSPHOKINASE / CREATININE / GLUCOSE / LACTATE DEHYDROGENASE / LIPASE / PHOSPHORUS / POTASSIUM / SODIUM / TOTAL BILIRUBIN / TOTAL PROTEIN: tissue Plasma; for ABSOLUTE BASOPHIL / ABSOLUTE EOSINOPHIL / ABSOLUTE LYMPHOCYTE / ABSOLUTE MONOCYTE / ABSOLUTE SEGMENTED NEUTROPHIL / BASOPHIL / EOSINOPHIL / ERYTHROCYTE COUNT / HEMATOCRIT / HEMOGLOBIN / LEUKOCYTE COUNT / LYMPHOCYTE / MEAN CORPUSCULAR HEMOGLOBIN / MEAN CORPUSCULAR HEMOGLOBIN CONCENTRATION / MEAN CORPUSCULAR VOLUME / MONOCYTE / NEUTROPHIL / NUCLEATED RED BLOOD CELLS: tissue Blood
[1] = 18 mg/kg, 120 h, dose level Low, time 5 day
[2] = 73 mg/kg, 72 h, dose level High, time 3 day
[3] = 73 mg/kg, 120 h, dose level High, time 5 day

## CN(C)CCCN1c2ccccc2Sc2ccc(Cl)cc21 [CHLORPROMAZINE]
18 mg/kg, 72 h, dose level Low, time 3 day
  URIC ACID: 0.4 mg/dL
[1]
  ABSOLUTE BASOPHIL: 0 CELLS/uL
  ABSOLUTE EOSINOPHIL: 76 CELLS/uL
  ABSOLUTE LYMPHOCYTE: 7709.67 CELLS/uL
  ABSOLUTE MONOCYTE: 216 CELLS/uL
  ABSOLUTE SEGMENTED NEUTROPHIL: 898.33 CELLS/uL
  BASOPHIL: 0%
  EOSINOPHIL: 0.67%
  ERYTHROCYTE COUNT: 5.62 x10E6/uL
  HEMATOCRIT: 36.23%
  HEMOGLOBIN: 13.87 G/DL
  LEUKOCYTE COUNT: 8.9 x10E3/uL
  LYMPHOCYTE: 87%
  MEAN CORPUSCULAR HEMOGLOBIN: 24.7 pg
  MEAN CORPUSCULAR HEMOGLOBIN CONCENTRATION: 38.27 G/DL
  MEAN CORPUSCULAR VOLUME: 64.5 fL
  MONOCYTE: 2.33%
  NEUTROPHIL: 10%
  NUCLEATED RED BLOOD CELLS: 0 /100WBC
  ALANINE AMINOTRANSFERASE: 54.67 u/L
  ALKALINE PHOSPHATASE: 255.67 u/L
  ASPARTATE AMINOTRANSFERASE: 80.33 u/L
  BLOOD UREA NITROGEN: 14.33 mg/dL
  CARBON DIOXIDE: 29.33 mmol/L
  CHLORIDE: 102.33 MEQ/L
  CHOLESTEROL: 84.67 mg/dL
  CREATINE PHOSPHOKINASE: 218.67 u/L
  CREATININE: 0.12 mg/dL
  GLUCOSE: 141.33 mg/dL
  LACTATE DEHYDROGENASE: 69.67 u/L
  LIPASE: 9 u/L
  PHOSPHORUS: 11.6 mg/dL
  POTASSIUM: 5.95 MEQ/L
  SODIUM: 145.57 MEQ/L
  TOTAL BILIRUBIN: 0.13 mg/dL
  URIC ACID: 0.6 mg/dL
[2]
  ABSOLUTE BASOPHIL: 0 CELLS/uL
  ABSOLUTE EOSINOPHIL: 0 CELLS/uL
  ABSOLUTE LYMPHOCYTE: 7383 CELLS/uL
  ABSOLUTE MONOCYTE: 208 CELLS/uL
  ABSOLUTE SEGMENTED NEUTROPHIL: 342.33 CELLS/uL
  BASOPHIL: 0%
  EOSINOPHIL: 0%
  ERYTHROCYTE COUNT: 5.6 x10E6/uL
  HEMATOCRIT: 35.37%
  HEMOGLOBIN: 13.77 G/DL
  LEUKOCYTE COUNT: 7.93 x10E3/uL
  LYMPHOCYTE: 92.33%
  MEAN CORPUSCULAR HEMOGLOBIN: 24.63 pg
  MEAN CORPUSCULAR HEMOGLOBIN CONCENTRATION: 38.93 G/DL
  MEAN CORPUSCULAR VOLUME: 63.17 fL
  MONOCYTE: 3%
  NEUTROPHIL: 4.67%
  NUCLEATED RED BLOOD CELLS: 0 /100WBC
  ALANINE AMINOTRANSFERASE: 56 u/L
  ALKALINE PHOSPHATASE: 291.33 u/L
  ASPARTATE AMINOTRANSFERASE: 84 u/L
  BLOOD UREA NITROGEN: 14.33 mg/dL
  CARBON DIOXIDE: 37.67 mmol/L
  CHLORIDE: 101 MEQ/L
  CHOLESTEROL: 99 mg/dL
  CREATINE PHOSPHOKINASE: 176.33 u/L
  CREATININE: 0.27 mg/dL
  GLUCOSE: 154.67 mg/dL
  LACTATE DEHYDROGENASE: 52.67 u/L
  LIPASE: 12 u/L
  PHOSPHORUS: 8.2 mg/dL
  POTASSIUM: 5.02 MEQ/L
  SODIUM: 145.37 MEQ/L
  TOTAL BILIRUBIN: 0.13 mg/dL
  TOTAL PROTEIN: 5.7 G/DL
  URIC ACID: 0.4 mg/dL
[3]
  ABSOLUTE BASOPHIL: 0 CELLS/uL
  ABSOLUTE EOSINOPHIL: 148.67 CELLS/uL
  ABSOLUTE LYMPHOCYTE: 10432 CELLS/uL
  ABSOLUTE MONOCYTE: 268.67 CELLS/uL
  ABSOLUTE SEGMENTED NEUTROPHIL: 584 CELLS/uL
  BASOPHIL: 0%
  EOSINOPHIL: 1.33%
  ERYTHROCYTE COUNT: 6.19 x10E6/uL
  HEMATOCRIT: 38.2%
  HEMOGLOBIN: 14.83 G/DL
  LEUKOCYTE COUNT: 11.43 x10E3/uL
  LYMPHOCYTE: 91%
  MEAN CORPUSCULAR HEMOGLOBIN: 23.93 pg
  MEAN CORPUSCULAR HEMOGLOBIN CONCENTRATION: 38.87 G/DL
  MEAN CORPUSCULAR VOLUME: 61.63 fL
  MONOCYTE: 2.33%
  NEUTROPHIL: 5.33%
  NUCLEATED RED BLOOD CELLS: 0 /100WBC
  ALANINE AMINOTRANSFERASE: 61.67 u/L
  ALKALINE PHOSPHATASE: 321.67 u/L
  ASPARTATE AMINOTRANSFERASE: 110.67 u/L
  BLOOD UREA NITROGEN: 24.67 mg/dL
  CARBON DIOXIDE: 27.67 mmol/L
  CHLORIDE: 103.33 MEQ/L
  CHOLESTEROL: 87.33 mg/dL
  CREATINE PHOSPHOKINASE: 231.67 u/L
  CREATININE: 0.25 mg/dL
  GLUCOSE: 142.33 mg/dL
  LACTATE DEHYDROGENASE: 88.67 u/L
  LIPASE: 10.33 u/L
  PHOSPHORUS: 9.27 mg/dL
  POTASSIUM: 5.11 MEQ/L
  SODIUM: 145.67 MEQ/L
  TOTAL BILIRUBIN: 0.17 mg/dL
  TOTAL PROTEIN: 6.07 G/DL
  URIC ACID: 0.43 mg/dL
